Some targets named below: RIPK1; FADD; SMAD4.
Holding throughout (conditions): ASO

These antisense oligonucleotides have a phosphorothioate backbone; sugars and methylation of C are not fully specified. A value given as a limit tells only on which side of the number the result lay.
Further: test concentration or dose not given here.

For the sequence CTGTGGCTGAATTTGACC, the remaining target (mRNA or protein) (fraction of control) with RIPK1 was not below 1. CTGTGTTCTTCCAGATTC returned a remaining target (mRNA or protein) (fraction of control) in the data set with FADD not below 1. Still for that read-out and setting: the figure for CTTCGCTCCGATTCCTGG is not below 1; for GAACCAAAGTCCAGGCTG it is not below 1. In the data set with RIPK1, GAAGTTTGAGACCAGCCT returned a remaining target (mRNA or protein) (fraction of control) not below 1. In the data set with SMAD4, GAATGAAGGAAAAGAAAT gave a remaining target (mRNA or protein) (fraction of control) not below 1. In the data set with SMAD4, GAATTTCAATCCAGCAAG returned a remaining target (mRNA or protein) (fraction of control) not below 1. On the same count and under the same terms, the figure for GACAGGCATCATTACTTG is not below 1.

For GACAGGCTGGACGACACC, the remaining target (mRNA or protein) (fraction of control) with FADD turned out to be 0.62. For the sequence GACCCATCCCAAGTCCCT, the remaining target (mRNA or protein) (fraction of control) with RIPK1 is not below 1. GATGACACTGACGCAAAT had a remaining target (mRNA or protein) (fraction of control) in the data set with SMAD4 not below 1. For GATGCTGTCGATCTTGGT, the remaining target (mRNA or protein) (fraction of control) with FADD came out at 0.91. Consider GCCACATTCTGTCTGGGC, for which the remaining target (mRNA or protein) (fraction of control) in the data set with RIPK1 turned out to be 0.72. In turn, GCCAGCCTTCTCCAATCT came in with a remaining target (mRNA or protein) (fraction of control) with FADD of 0.62. Take GCCCCTACTTAGCAGTCT: in the data set with FADD, the remaining target (mRNA or protein) (fraction of control) came to 0.65. GCTCGCTGCTCGACAGGC gave a remaining target (mRNA or protein) (fraction of control) in the data set with FADD of 0.74. On the same count and under the same terms, the figure for GCTGGGCTACCTTCCTGG is not below 1. Still for that read-out and setting: the figure for GGACCACGGCCAACCAGG is 0.58. Take GGATCCAGTGGTCTTGTT: the remaining target (mRNA or protein) (fraction of control) with RIPK1 came out at 0.84. Sequence GGCAGCAAACACATTTTC gave a remaining target (mRNA or protein) (fraction of control) with SMAD4 not below 1. On to GGCATGGTGGGTGTATTT, for which the remaining target (mRNA or protein) (fraction of control) with RIPK1 is not below 1. In the data set with FADD, GGCCCCACTCCTGTTCTG displayed a remaining target (mRNA or protein) (fraction of control) of 0.52. Sequence GGTTAGTTCTGGCTGACG had a remaining target (mRNA or protein) (fraction of control) in the data set with RIPK1 not below 1. As to GGTTCCAACTTTCCAACT, in the data set with FADD, the remaining target (mRNA or protein) (fraction of control) is 0.97.

GTAGTCCACCATCCTGAT had a remaining target (mRNA or protein) (fraction of control) with SMAD4 not below 1.

Consider GTCTGAGACTTTGAGCTG, for which, in the data set with FADD, the remaining target (mRNA or protein) (fraction of control) is not below 1.

In the case of GTGCATCAGGTTGCCCTT, in the data set with RIPK1, the remaining target (mRNA or protein) (fraction of control) was not below 1.

As to GTGCCTTTTCCCTCTGTA, the remaining target (mRNA or protein) (fraction of control) with RIPK1 amounted to 0.84. For GTGGACAACGATGGCTGT, the remaining target (mRNA or protein) (fraction of control) in the data set with SMAD4 was not below 1.

Turning to GTGTTTCTTTGATGCTCT, the remaining target (mRNA or protein) (fraction of control) in the data set with SMAD4 is not below 1. GTTGCGTTCTCCTTCTCT gave a remaining target (mRNA or protein) (fraction of control) with FADD of 0.76.

GTTTCTCCTAATCTTCAA: the remaining target (mRNA or protein) (fraction of control) with SMAD4 is not below 1. The same measure, in the same setting: as for TAAAATCAGCAATACTGG, the figure is 0.79; as for TACAACTCGTTCGTAGTG, not below 1. With TACCAGGTCAGCCACCAG, in the data set with FADD, the remaining target (mRNA or protein) (fraction of control) amounted to 0.91. For TAGGTAGAGTGACGCTGC, in the data set with SMAD4, the remaining target (mRNA or protein) (fraction of control) is not below 1. With TATCAAAGATAGCTTGGT, the remaining target (mRNA or protein) (fraction of control) with RIPK1 is not below 1.

As to TATGGCTCCTTATTTGCA, the remaining target (mRNA or protein) (fraction of control) with RIPK1 worked out at 0.78. TCATAGTGAGGAAGAAAT showed a remaining target (mRNA or protein) (fraction of control) in the data set with FADD not below 1.

In turn, TCATCAGCACCTCACAGA gave a remaining target (mRNA or protein) (fraction of control) with FADD of 0.74.

Consider TCCCAGCACTTTGGAAGG, for which the remaining target (mRNA or protein) (fraction of control) in the data set with RIPK1 is not below 1. For TCTGTCTAAGTAGTAACT, the remaining target (mRNA or protein) (fraction of control) with SMAD4 was not below 1. In the data set with SMAD4, TGAAGCCTCCCATCCAAT returned a remaining target (mRNA or protein) (fraction of control) of 0.9. On the same count and under the same terms, as for TGACAAGTTCTGAAGAGG, the figure is not below 1; as for TGACGCTGCTTTTAGTGT, not below 1.

As to TGAGGTTGGCTGGTGAGC, the remaining target (mRNA or protein) (fraction of control) with RIPK1 turned out to be 0.83.

TGCTCCACATCTTAAAGG: the remaining target (mRNA or protein) (fraction of control) with RIPK1 was found to be 0.75. Same read-out and setting: as for TGGAAGTCATTATCAACA, the figure is not below 1. With TGGAGTAACAGTGTGACT, the remaining target (mRNA or protein) (fraction of control) with FADD was 0.64. As to TGGATGAAAGATTACAAT, the remaining target (mRNA or protein) (fraction of control) with SMAD4 was not below 1.

In turn, TGTCCAGTTCTGCACTCT came in with a remaining target (mRNA or protein) (fraction of control) in the data set with RIPK1 of 0.81.

Consider TTAAACTCTTCACGTCCT, for which, in the data set with RIPK1, the remaining target (mRNA or protein) (fraction of control) came out at 0.85.

Regarding TTCACAAAACTCATCCTG, the remaining target (mRNA or protein) (fraction of control) in the data set with SMAD4 was not below 1. Same read-out and setting: as for TTGGGAAAGTTGGCAGTG, the figure is not below 1. TTGTGCTGTCTAGTAGTG gave a remaining target (mRNA or protein) (fraction of control) with RIPK1 not below 1.

In the data set with RIPK1, TTGTGTATCACGCCTTTT gave a remaining target (mRNA or protein) (fraction of control) not below 1.

TTTAAGGGATTCTCAATA showed a remaining target (mRNA or protein) (fraction of control) with SMAD4 not below 1.

In turn, TTTCCCCATTCTCCAGCT came in with a remaining target (mRNA or protein) (fraction of control) with RIPK1 of 0.85. In turn, TTTGATACAAAACAGTAA displayed a remaining target (mRNA or protein) (fraction of control) with FADD of 0.42. Consider TTTGATGCTCTGTCTTGG, for which, in the data set with SMAD4, the remaining target (mRNA or protein) (fraction of control) is not below 1.

The values are drawn from the OligoGym collection.
